# Test results from patent US6358885B1, “Substituted phenylheterocyclic herbicides” (Mississippi State University, priority 1992, dated 2002).
# Legend:
# Assay in all cases: Test B preemergence/postemergence greenhouse plant response rating 0 to 10
# Details in all cases: 0 to 10 scale
# [1] = test system: barley; format: in vivo, Hordeum vulgare
# How it was run: (§1)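 Both application timings were run together: seeds got compound preemergence, and established seedlings (two to eighteen cm) got it postemergence. Non-phytotoxic solvent carried the chemical. Ratings are visual, versus controls, at twelve to sixteen days.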
# [2] = test system: barnyardgrass; format: in vivo, Echinochloa crus-galli
# How it was run: as §1
# [3] = test system: bedstraw; format: in vivo, Galium aparine
# How it was run: as §1
# [4] = test system: blackgrass; format: in vivo, Alopecurus myosuroides
# How it was run: as §1
# [5] = test system: cheatgrass; format: in vivo, Bromus secalinus
# How it was run: as §1
# [6] = test system: chickweed; format: in vivo, Stellaria media
# How it was run: as §1
# [7] = test system: cocklebur; format: in vivo, Xanthium pensylvanicum
# How it was run: as §1
# [8] = test system: corn; format: in vivo, Zea mays
# How it was run: as §1
# [9] = test system: cotton; format: in vivo, Gossypium hirsutum
# How it was run: as §1
# [10] = test system: crabgrass; format: in vivo, Digitaria spp.
# How it was run: as §1
# [11] = test system: giant foxtail; format: in vivo, Setaria faberii
# How it was run: as §1
# [12] = test system: lambsquarters; format: in vivo, Chenopodium album
# How it was run: as §1
# [13] = test system: morningglory; format: in vivo, Ipomoea hederacea
# How it was run: as §1
# [14] = test system: rape; format: in vivo, Brassica napus
# How it was run: as §1
# [15] = test system: rice; format: in vivo, Oryza sativa
# How it was run: as §1
# [16] = test system: sorghum; format: in vivo, Sorghum bicolor
# How it was run: as §1
# [17] = test system: soybean; format: in vivo, Glycine max
# How it was run: as §1
# [18] = test system: sugar beet; format: in vivo, Beta vulgaris
# How it was run: as §1
# [19] = test system: velvetleaf; format: in vivo, Abutilon theophrasti
# How it was run: as §1
# [20] = test system: wheat; format: in vivo, Triticum aestivum
# How it was run: as §1
# [21] = test system: wild buckwheat; format: in vivo, Polygonum convolvulus
# How it was run: as §1
# [22] = test system: wild oat; format: in vivo, Avena fatua
# How it was run: as §1
# [23] = test system: purple nutsedge; format: in vivo, Cyperus rotundus
# How it was run: as §1
compound,measurement,setting,value
COCCN1C(=O)COc2cc(F)c(-c3nn4c(c3Cl)CCCC4)cc21 [Compound 53],"Plant response rating, Barley","[1]; POSTEMERGENCE, Rate 10 g/ha",4
same,"Plant response rating, Barley","[1]; POSTEMERGENCE, Rate 50 g/ha",6
same,"Plant response rating, Barley","[1]; PREEMERGENCE, Rate 10 g/ha",1
same,"Plant response rating, Barley","[1]; PREEMERGENCE, Rate 50 g/ha",1
same,"Plant response rating, Barnyardgrass","[2]; POSTEMERGENCE, Rate 10 g/ha",3
same,"Plant response rating, Barnyardgrass","[2]; POSTEMERGENCE, Rate 50 g/ha",6
same,"Plant response rating, Barnyardgrass","[2]; PREEMERGENCE, Rate 10 g/ha",2
same,"Plant response rating, Barnyardgrass","[2]; PREEMERGENCE, Rate 50 g/ha",2
same,"Plant response rating, Bedstraw","[3]; POSTEMERGENCE, Rate 10 g/ha",8
same,"Plant response rating, Bedstraw","[3]; POSTEMERGENCE, Rate 50 g/ha",10
same,"Plant response rating, Bedstraw","[3]; PREEMERGENCE, Rate 10 g/ha",8
same,"Plant response rating, Bedstraw","[3]; PREEMERGENCE, Rate 50 g/ha",9
same,"Plant response rating, Blackgrass","[4]; POSTEMERGENCE, Rate 10 g/ha",5
same,"Plant response rating, Blackgrass","[4]; POSTEMERGENCE, Rate 50 g/ha",5
same,"Plant response rating, Blackgrass","[4]; PREEMERGENCE, Rate 10 g/ha",4
same,"Plant response rating, Blackgrass","[4]; PREEMERGENCE, Rate 50 g/ha",6
same,"Plant response rating, Cheatgrass","[5]; POSTEMERGENCE, Rate 10 g/ha",5
same,"Plant response rating, Cheatgrass","[5]; POSTEMERGENCE, Rate 50 g/ha",4
same,"Plant response rating, Cheatgrass","[5]; PREEMERGENCE, Rate 10 g/ha",3
same,"Plant response rating, Cheatgrass","[5]; PREEMERGENCE, Rate 50 g/ha",4
same,"Plant response rating, Chickweed","[6]; POSTEMERGENCE, Rate 10 g/ha",9
same,"Plant response rating, Chickweed","[6]; POSTEMERGENCE, Rate 50 g/ha",9
same,"Plant response rating, Chickweed","[6]; PREEMERGENCE, Rate 10 g/ha",10
same,"Plant response rating, Chickweed","[6]; PREEMERGENCE, Rate 50 g/ha",10
same,"Plant response rating, Cocklebur","[7]; POSTEMERGENCE, Rate 10 g/ha",9
same,"Plant response rating, Cocklebur","[7]; POSTEMERGENCE, Rate 50 g/ha",10
same,"Plant response rating, Cocklebur","[7]; PREEMERGENCE, Rate 10 g/ha",0
same,"Plant response rating, Cocklebur","[7]; PREEMERGENCE, Rate 50 g/ha",1
same,"Plant response rating, Corn","[8]; POSTEMERGENCE, Rate 10 g/ha",4
same,"Plant response rating, Corn","[8]; POSTEMERGENCE, Rate 50 g/ha",4
same,"Plant response rating, Corn","[8]; PREEMERGENCE, Rate 50 g/ha",0
same,"Plant response rating, Cotton","[9]; POSTEMERGENCE, Rate 10 g/ha",10
same,"Plant response rating, Cotton","[9]; POSTEMERGENCE, Rate 50 g/ha",10
same,"Plant response rating, Cotton","[9]; PREEMERGENCE, Rate 10 g/ha",0
same,"Plant response rating, Cotton","[9]; PREEMERGENCE, Rate 50 g/ha",2
same,"Plant response rating, Crabgrass","[10]; POSTEMERGENCE, Rate 10 g/ha",3
same,"Plant response rating, Crabgrass","[10]; POSTEMERGENCE, Rate 50 g/ha",4
same,"Plant response rating, Crabgrass","[10]; PREEMERGENCE, Rate 10 g/ha",2
same,"Plant response rating, Crabgrass","[10]; PREEMERGENCE, Rate 50 g/ha",6
same,"Plant response rating, Giant foxtail","[11]; POSTEMERGENCE, Rate 10 g/ha",3
same,"Plant response rating, Giant foxtail","[11]; POSTEMERGENCE, Rate 50 g/ha",6
same,"Plant response rating, Giant foxtail","[11]; PREEMERGENCE, Rate 10 g/ha",2
same,"Plant response rating, Giant foxtail","[11]; PREEMERGENCE, Rate 50 g/ha",8
same,"Plant response rating, Lambsquarter","[12]; POSTEMERGENCE, Rate 10 g/ha",10
same,"Plant response rating, Lambsquarter","[12]; POSTEMERGENCE, Rate 50 g/ha",10
same,"Plant response rating, Lambsquarter","[12]; PREEMERGENCE, Rate 50 g/ha",10
same,"Plant response rating, Morningglory","[13]; POSTEMERGENCE, Rate 10 g/ha",9
same,"Plant response rating, Morningglory","[13]; POSTEMERGENCE, Rate 50 g/ha",10
same,"Plant response rating, Morningglory","[13]; PREEMERGENCE, Rate 50 g/ha",10
same,"Plant response rating, Rape","[14]; POSTEMERGENCE, Rate 10 g/ha",10
same,"Plant response rating, Rape","[14]; POSTEMERGENCE, Rate 50 g/ha",10
same,"Plant response rating, Rape","[14]; PREEMERGENCE, Rate 50 g/ha",2
same,"Plant response rating, Rice","[15]; POSTEMERGENCE, Rate 10 g/ha",4
same,"Plant response rating, Rice","[15]; POSTEMERGENCE, Rate 50 g/ha",4
same,"Plant response rating, Rice","[15]; PREEMERGENCE, Rate 50 g/ha",1
same,"Plant response rating, Sorghum","[16]; POSTEMERGENCE, Rate 10 g/ha",3
same,"Plant response rating, Sorghum","[16]; POSTEMERGENCE, Rate 50 g/ha",3
same,"Plant response rating, Sorghum","[16]; PREEMERGENCE, Rate 50 g/ha",6
same,"Plant response rating, Soybean","[17]; POSTEMERGENCE, Rate 10 g/ha",9
same,"Plant response rating, Soybean","[17]; POSTEMERGENCE, Rate 50 g/ha",9
same,"Plant response rating, Soybean","[17]; PREEMERGENCE, Rate 50 g/ha",0
same,"Plant response rating, Sugar beet","[18]; POSTEMERGENCE, Rate 10 g/ha",10
same,"Plant response rating, Sugar beet","[18]; POSTEMERGENCE, Rate 50 g/ha",10
same,"Plant response rating, Sugar beet","[18]; PREEMERGENCE, Rate 50 g/ha",9
same,"Plant response rating, Velvetleaf","[19]; POSTEMERGENCE, Rate 10 g/ha",9
same,"Plant response rating, Velvetleaf","[19]; POSTEMERGENCE, Rate 50 g/ha",10
same,"Plant response rating, Velvetleaf","[19]; PREEMERGENCE, Rate 50 g/ha",9
same,"Plant response rating, Wheat","[20]; POSTEMERGENCE, Rate 10 g/ha",7
same,"Plant response rating, Wheat","[20]; POSTEMERGENCE, Rate 50 g/ha",7
same,"Plant response rating, Wheat","[20]; PREEMERGENCE, Rate 50 g/ha",7
same,"Plant response rating, Wild buckwheat","[21]; POSTEMERGENCE, Rate 10 g/ha",10
same,"Plant response rating, Wild buckwheat","[21]; POSTEMERGENCE, Rate 50 g/ha",10
same,"Plant response rating, Wild buckwheat","[21]; PREEMERGENCE, Rate 50 g/ha",9
same,"Plant response rating, Wild oat","[22]; POSTEMERGENCE, Rate 10 g/ha",6
same,"Plant response rating, Wild oat","[22]; POSTEMERGENCE, Rate 50 g/ha",7
same,"Plant response rating, Wild oat","[22]; PREEMERGENCE, Rate 50 g/ha",8
same,"Plant response rating, Nutsedge","[23]; POSTEMERGENCE, Rate 10 g/ha",6
same,"Plant response rating, Nutsedge","[23]; POSTEMERGENCE, Rate 50 g/ha",6
same,"Plant response rating, Nutsedge","[23]; PREEMERGENCE, Rate 50 g/ha",0
